Molecules are shown by their SMILES.

For 2 molecules, IC50 results are on record in BindingDB's records for doi:10.1007/s00044-013-0771-5 (n/a, 2013).

The target of this assay is Prostaglandin G/H synthase 1/2 (Homo sapiens, UniProt P23219+P35354). The assay is described as follows: Inhibition of COX (unknown origin).
Sequence of Prostaglandin G/H synthase 1/2 (P35354 whole entry): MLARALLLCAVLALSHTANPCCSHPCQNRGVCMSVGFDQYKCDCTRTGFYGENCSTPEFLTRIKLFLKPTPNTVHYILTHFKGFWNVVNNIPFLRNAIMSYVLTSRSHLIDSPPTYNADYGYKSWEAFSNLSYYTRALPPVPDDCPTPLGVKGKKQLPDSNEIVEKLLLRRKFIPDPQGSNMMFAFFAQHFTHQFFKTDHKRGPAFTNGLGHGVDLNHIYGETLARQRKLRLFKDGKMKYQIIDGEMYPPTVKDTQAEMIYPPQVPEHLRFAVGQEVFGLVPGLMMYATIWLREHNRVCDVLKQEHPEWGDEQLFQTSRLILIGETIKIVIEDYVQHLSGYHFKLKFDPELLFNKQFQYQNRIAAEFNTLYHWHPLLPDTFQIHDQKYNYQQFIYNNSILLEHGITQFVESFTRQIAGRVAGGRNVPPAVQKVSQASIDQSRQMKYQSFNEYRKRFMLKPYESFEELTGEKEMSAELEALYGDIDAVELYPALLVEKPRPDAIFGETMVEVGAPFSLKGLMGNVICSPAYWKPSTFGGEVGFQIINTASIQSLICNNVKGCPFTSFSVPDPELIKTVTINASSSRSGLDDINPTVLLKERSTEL
Sequence of Prostaglandin G/H synthase 1/2 (P23219 whole entry): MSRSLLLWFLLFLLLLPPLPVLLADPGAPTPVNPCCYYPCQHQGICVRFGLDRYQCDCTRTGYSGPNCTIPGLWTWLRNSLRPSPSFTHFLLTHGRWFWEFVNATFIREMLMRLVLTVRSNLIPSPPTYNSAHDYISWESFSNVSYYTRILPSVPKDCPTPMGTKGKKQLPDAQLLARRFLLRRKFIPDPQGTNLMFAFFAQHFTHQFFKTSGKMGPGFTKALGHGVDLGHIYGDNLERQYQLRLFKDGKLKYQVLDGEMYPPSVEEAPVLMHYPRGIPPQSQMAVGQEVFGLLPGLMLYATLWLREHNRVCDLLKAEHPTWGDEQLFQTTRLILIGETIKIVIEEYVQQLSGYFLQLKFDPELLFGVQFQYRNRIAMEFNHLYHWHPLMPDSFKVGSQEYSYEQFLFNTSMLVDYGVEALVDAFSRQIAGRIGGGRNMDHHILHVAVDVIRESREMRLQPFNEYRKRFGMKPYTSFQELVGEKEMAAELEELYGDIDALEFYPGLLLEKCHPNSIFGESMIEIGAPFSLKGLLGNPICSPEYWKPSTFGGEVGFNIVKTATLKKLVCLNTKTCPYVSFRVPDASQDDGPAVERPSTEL

As for `O=C(O)Cc1cc(O)ccc1Nc1c(Cl)cccc1Cl` [CHEBI:59612], the IC50 – broadly, the concentration that gives 50% inhibition – came out at 447 µM.
To `O=C(O)Cc1cc(O)ccc1Nc1c(Cl)cc(O)cc1Cl` [CHEBI:223401] belongs 912 µM.
